Among the data in paper PMC3634507 (International Journal of Molecular Sciences, 2013) are IC50 values, retold here.

The target in experiment [1] is T1, AChE from Electrophorus electricus (Electrophorus electricus, UniProt O42275).
T1 construct: purchased Sigma-Aldrich
Kind of experiment: Ellman's assay, AChE inhibition. In kind it is biochemical.

In another experiment the target is T2, BuChE from horse serum (Equus caballus, UniProt P81908).
T2 construct: BuChE from horse serum (2.5 units/1 mL); purchased Sigma-Aldrich; host or cells: horse serum
T2 sequence (P81908 whole entry): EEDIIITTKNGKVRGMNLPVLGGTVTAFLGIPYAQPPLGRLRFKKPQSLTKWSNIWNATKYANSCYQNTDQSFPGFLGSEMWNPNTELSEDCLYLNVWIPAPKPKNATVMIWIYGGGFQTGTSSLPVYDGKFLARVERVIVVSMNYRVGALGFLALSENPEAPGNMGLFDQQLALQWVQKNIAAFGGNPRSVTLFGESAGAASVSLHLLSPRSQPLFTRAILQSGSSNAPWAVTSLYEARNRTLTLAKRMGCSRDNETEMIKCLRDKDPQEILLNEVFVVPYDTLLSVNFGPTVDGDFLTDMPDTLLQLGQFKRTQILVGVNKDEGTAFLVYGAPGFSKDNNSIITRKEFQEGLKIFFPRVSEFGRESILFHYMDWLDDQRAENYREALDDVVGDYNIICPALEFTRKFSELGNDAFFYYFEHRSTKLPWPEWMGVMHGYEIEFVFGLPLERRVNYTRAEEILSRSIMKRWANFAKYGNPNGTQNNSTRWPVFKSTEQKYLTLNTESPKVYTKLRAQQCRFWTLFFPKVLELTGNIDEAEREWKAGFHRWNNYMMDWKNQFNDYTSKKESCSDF
Kind of experiment: biochemical. As to the method: The activity against acetylcholinesterases from electric eel and butyrylcholinesterase from horse serum was determined in spectrophotometric Ellman’s assay.
The activity against cholinesterases was determined in spectrophotometric Ellman’s assay.
The reaction took place in 100 mM phosphate buffer, pH 8.0, containing 0.25 units of AChE or BuChE, 0.3 mmol 5,5′-dithio-bis-(2-nitrobenzoic) acid (DTNB) and 0.45 mmol acetylthiocholine or butyrylthiocholine as substrates. The tested compounds were incubated with the enzyme for 5 min at 25 °C prior to starting the reaction by adding the substrate.

The target in experiment [2] is T1, AChE from Electrophorus electricus. The note with it: Ellman's assay, compounds 7-9 ref 39, cited from earlier work.
The mark [3] stands for this setting: AChE IC50, Ellman's assay, electric eel AChE, pH 8.0, 25 °C.
[4] abbreviates: Ellman's assay, horse serum BuChE, pH 8.0, 25 °C, n.a.: not active, read-out: BuChE IC50.
Setting [5] is: electric eel AChE, read-out: AChE IC50.

As a reminder, the IC50 is the point on the concentration scale where inhibition reaches its midpoint.

The structures appear in SMILES notation. Several values for one entry are separate records, joined by “and”; a condition that tells them apart may be missing. Equal entries are not always repeated. Where two headings read alike, the source gives them in different places.

T1 sequence (O42275 24-633): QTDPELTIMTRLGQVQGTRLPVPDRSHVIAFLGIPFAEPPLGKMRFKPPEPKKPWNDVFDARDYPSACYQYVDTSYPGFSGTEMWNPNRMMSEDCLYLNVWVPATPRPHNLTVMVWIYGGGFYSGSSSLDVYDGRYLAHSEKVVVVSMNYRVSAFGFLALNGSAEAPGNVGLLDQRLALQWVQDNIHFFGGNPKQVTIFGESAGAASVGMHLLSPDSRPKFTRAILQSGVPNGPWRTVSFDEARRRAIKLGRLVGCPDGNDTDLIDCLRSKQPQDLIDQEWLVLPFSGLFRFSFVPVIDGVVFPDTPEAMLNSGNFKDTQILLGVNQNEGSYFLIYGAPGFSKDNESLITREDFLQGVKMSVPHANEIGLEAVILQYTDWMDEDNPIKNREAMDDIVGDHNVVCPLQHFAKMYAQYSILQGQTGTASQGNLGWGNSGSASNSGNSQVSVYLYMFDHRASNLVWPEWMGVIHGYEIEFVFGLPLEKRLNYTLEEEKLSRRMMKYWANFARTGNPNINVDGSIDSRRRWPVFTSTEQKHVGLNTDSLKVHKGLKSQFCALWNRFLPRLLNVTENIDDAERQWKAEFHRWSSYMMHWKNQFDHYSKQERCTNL

With `O=C1c2ccccc2C(=O)N1CCCCCNCc1ccccc1` [Compound 5, 2-(5-(Benzylamino)pentyl)isoindoline-1,3-dione], the IC50 in experiment [1] (setting [3]) was 170 nM; in experiment [1] (IC50 AChE, Ellman's assay), 170 nM.
`O=C1c2ccccc2C(=O)N1CCCCCCNC1CCN(Cc2cccc(Cl)c2)CC1` [Compound 3, 2-(6-(1-(3-Chlorobenzyl)piperidin-4-ylamino)hexyl)isoindoline-1,3-dione]: the IC50 in experiment [1] (setting [3]) was 44000 nM; on BuChE from horse serum it was 7660 nM.
Regarding `O=C1c2ccccc2C(=O)N1CCCNC1CCN(Cc2ccccc2)CC1` [Compound 1, 2-(3-(1-Benzylpiperidin-4-ylamino)propyl)isoindoline-1,3-dione], the IC50 in experiment [1] (setting [3]) was 18200 nM; on BuChE from horse serum (setting [4]), 22800 nM.
For the molecule `O=C1c2ccccc2C(=O)N1CCCCCNCc1ccccc1F` [Compound 6, 2-(5-(2-fluorobenzylamino)pentyl)isoindoline-1,3-dione], the IC50 in experiment [1] (setting [3]) is 87.2 nM; in experiment [1] (IC50 AChE, Ellman's assay), 87 nM and 87.2 nM.
As to `O=C1c2ccccc2C(=O)N1CCCCCCNCc1ccccc1` [Compound 4, 2-(6-(Benzylamino)hexyl)isoindoline-1,3-dione], the IC50 in experiment [1] (setting [3]) was 330 nM; in experiment [1] (IC50 AChE, Ellman's assay) it was 330 nM.
As to `CCN(CC)CCCCCCCN1C(=O)c2ccccc2C1=O` [Compound 8, 2-(7-diethylaminoheptyl)-isoindoline-1,3-dione], the IC50 in experiment [2] (setting [5]) and in experiment [2] (read-out: IC50 AChE) was 1070 nM in each case.
With `O=C1c2ccccc2C(=O)N1CCCCCCNC1CCN(Cc2ccccc2)CC1` [Compound 2, 2-(6-(1-Benzylpiperidin-4-ylamino)hexyl)isoindoline-1,3-dione], the IC50 in experiment [1] (setting [3]) is 53700 nM; on BuChE from horse serum (setting [4]), 24500 nM.
In the case of `CCN(CC)CCCCCCN1C(=O)c2ccccc2C1=O` [Compound 9, 2-(6-diethylaminohexyl)-isoindoline-1,3-dione], the IC50 in experiment [2] (setting [5]) and in experiment [2] (read-out: IC50 AChE) was 1230 nM each time.
